In US9796711B2, “Substituted pyrazolo[3,4-b]pyridin-6-carboxylic acids and method of use” (AbbVie S.àr.l., priority 2015, dated 2017):

Target: T1, ΔF508-CFTR (Homo sapiens, UniProt P13569, DEL508-508)
T1 construct: host or cells: CFBE41o-, doxycycline-inducible
Assay: CFTR cell surface levels using HRP-tagged ΔF508-CFTR expressing CFBE cells, in the presence of a co-corrector
Type: cell-based
Conditions: HRP-tagged ΔF508-CFTR expressing CFBE cells, in the presence of 3 μM co-corrector; for EC50: read-out: EC50
How it was run: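 Cells were seeded with 0.5 μg/mL doxycycline and held 68 h at 37 °C. Test compounds plus 3 μM co-corrector (final 0.1% DMSO) were then added for 20 h at 33 °C. Washed cells received HRP substrate, and luminescence was normalized between DMSO and 3 μM co-corrector controls.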

T1 sequence (P13569 with tags, fused parts or gaps DEL508-508): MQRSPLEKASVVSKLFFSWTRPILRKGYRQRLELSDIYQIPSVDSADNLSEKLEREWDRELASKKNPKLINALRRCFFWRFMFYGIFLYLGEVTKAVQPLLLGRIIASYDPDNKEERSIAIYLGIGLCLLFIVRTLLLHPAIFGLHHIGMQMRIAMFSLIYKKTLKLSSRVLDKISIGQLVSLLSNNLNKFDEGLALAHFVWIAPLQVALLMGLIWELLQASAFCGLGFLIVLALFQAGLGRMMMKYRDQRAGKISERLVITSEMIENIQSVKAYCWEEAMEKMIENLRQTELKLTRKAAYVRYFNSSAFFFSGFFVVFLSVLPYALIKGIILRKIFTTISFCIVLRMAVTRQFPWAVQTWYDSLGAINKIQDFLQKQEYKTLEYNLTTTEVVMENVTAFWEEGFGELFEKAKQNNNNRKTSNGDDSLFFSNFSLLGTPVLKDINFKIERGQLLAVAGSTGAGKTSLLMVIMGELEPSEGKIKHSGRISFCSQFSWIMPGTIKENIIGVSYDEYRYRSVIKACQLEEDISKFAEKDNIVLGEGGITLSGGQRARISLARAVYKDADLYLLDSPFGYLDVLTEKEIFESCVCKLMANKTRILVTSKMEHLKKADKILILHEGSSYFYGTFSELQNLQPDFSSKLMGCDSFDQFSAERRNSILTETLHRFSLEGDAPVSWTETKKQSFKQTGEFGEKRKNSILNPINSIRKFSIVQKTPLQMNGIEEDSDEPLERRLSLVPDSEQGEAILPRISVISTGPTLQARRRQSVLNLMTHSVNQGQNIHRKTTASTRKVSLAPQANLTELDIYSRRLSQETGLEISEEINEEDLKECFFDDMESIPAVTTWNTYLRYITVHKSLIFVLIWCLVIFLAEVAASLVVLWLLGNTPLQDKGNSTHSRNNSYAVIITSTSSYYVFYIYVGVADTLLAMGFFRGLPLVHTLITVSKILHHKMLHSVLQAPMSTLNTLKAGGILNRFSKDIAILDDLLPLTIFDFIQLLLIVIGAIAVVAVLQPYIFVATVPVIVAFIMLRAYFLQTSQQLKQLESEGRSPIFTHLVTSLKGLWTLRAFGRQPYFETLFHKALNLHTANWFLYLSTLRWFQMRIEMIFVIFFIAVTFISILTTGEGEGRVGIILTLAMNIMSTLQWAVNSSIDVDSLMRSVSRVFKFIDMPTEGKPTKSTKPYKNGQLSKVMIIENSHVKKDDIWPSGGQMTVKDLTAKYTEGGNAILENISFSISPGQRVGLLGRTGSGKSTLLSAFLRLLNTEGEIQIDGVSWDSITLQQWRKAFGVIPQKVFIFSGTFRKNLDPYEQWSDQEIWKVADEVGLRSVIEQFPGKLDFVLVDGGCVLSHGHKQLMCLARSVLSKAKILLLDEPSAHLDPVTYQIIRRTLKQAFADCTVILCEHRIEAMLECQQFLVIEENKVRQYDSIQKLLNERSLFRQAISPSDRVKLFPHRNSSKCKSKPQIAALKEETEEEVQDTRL

Structure (SMILES) | % Activation [%] | EC50 [nM]
CC(C)c1nn(-c2ccc(F)cc2)c2nc(C(=O)O)cc(N3CC(C4CN(C)CCO4)C3)c12 (stereo not shown) [compound 740, 1-(4-fluorophenyl)-4-[3-(4-methylmorpholin-2-yl)azetidin-1-yl]-3-(propan-2-yl)-1H-pyrazolo[3,4-b]pyridine-6-carboxylic acid] | 194.7 | 424
CCOCCN1CCC(N2CCN(c3cc(C(=O)O)nc4c3c(C(C)C)nn4-c3ccc(F)cc3)CC2)CC1 [compound 741, 4-{4-[1-(2-ethoxyethyl)piperidin-4-yl]piperazin-1-yl}-1-(4-fluorophenyl)-3-(propan-2-yl)-1H-pyrazolo[3,4-b]pyridine-6-carboxylic acid] | 303 | 669
CC(O)CN1CCC(N2CCN(c3cc(C(=O)O)nc4c3c(C(C)C)nn4-c3ccc(F)cc3)CC2)CC1 (stereo not shown) [compound 742, 1-(4-fluorophenyl)-4-{4-[1-(2-hydroxypropyl)piperidin-4-yl]piperazin-1-yl}-3-(propan-2-yl)-1H-pyrazolo[3,4-b]pyridine-6-carboxylic acid] | 126.1 | 5000
CC(C)c1nn(-c2ccc(F)cc2)c2nc(C(=O)O)cc(N3CCN(C4CCN(C5CC5)CC4)CC3)c12 [compound 743, 4-[4-(1-cyclopropylpiperidin-4-yl)piperazin-1-yl]-1-(4-fluorophenyl)-3-(propan-2-yl)-1H-pyrazolo[3,4-b]pyridine-6-carboxylic acid] | 330.5 | 1240
CC(C)c1nn(-c2ccc(F)cc2)c2nc(C(=O)O)cc(N3CCC(N4CCN(C5COC5)CC4)CC3)c12 [compound 744, 1-(4-fluorophenyl)-4-{4-[4-(oxetan-3-yl)piperazin-1-yl]piperidin-1-yl}-3-(propan-2-yl)-1H-pyrazolo[3,4-b]pyridine-6-carboxylic acid] | 337.3 | 735
COCCN1CCN(C2CCN(c3cc(C(=O)O)nc4c3c(C(C)C)nn4-c3ccc(F)cc3)CC2)CC1 [compound 746, 1-(4-fluorophenyl)-4-{4-[4-(2-methoxyethyl)piperazin-1-yl]piperidin-1-yl}-3-(propan-2-yl)-1H-pyrazolo[3,4-b]pyridine-6-carboxylic acid] | 418.4 | 549
CCN(CC)CCCC1CCN(c2cc(C(=O)O)nc3c2c(C(C)C)nn3-c2ccc(F)cc2)CC1 [compound 747, 4-{4-[3-(diethylamino)propyl]piperidin-1-yl}-1-(4-fluorophenyl)-3-(propan-2-yl)-1H-pyrazolo[3,4-b]pyridine-6-carboxylic acid] | 475.3 | 1670
CC(C)c1nn(-c2ccc(F)cc2)c2nc(C(=O)O)cc(N3CCC(CCCN4CCCC4)CC3)c12 [compound 749, 1-(4-fluorophenyl)-3-(propan-2-yl)-4-{4-[3-(pyrrolidin-1-yl)propyl]piperidin-1-yl}-1H-pyrazolo[3,4-b]pyridine-6-carboxylic acid] | 387 | 277
CCN(C1CCN(c2cc(C(=O)O)nc3c2c(C(C)C)nn3-c2ccc(F)cc2)CC1)C1COC1 [compound 750, 4-{4-[ethyl(oxetan-3-yl)amino]piperidin-1-yl}-1-(4-fluorophenyl)-3-(propan-2-yl)-1H-pyrazolo[3,4-b]pyridine-6-carboxylic acid] | 394.1 | 503
CC(C)c1nn(-c2ccc(F)cc2)c2nc(C(=O)O)cc(N3CCC(N(C)C4COC4)CC3)c12 [compound 751, 1-(4-fluorophenyl)-4-{4-[methyl(oxetan-3-yl)amino]piperidin-1-yl}-3-(propan-2-yl)-1H-pyrazolo[3,4-b]pyridine-6-carboxylic acid] | 400.2 | 1590
CC(C)c1nn(-c2ccc(F)cc2)c2nc(C(=O)O)cc(N3CCC(C4CCN(C5COC5)CC4)CC3)c12 [compound 752, 1-(4-fluorophenyl)-4-[1′-(oxetan-3-yl)[4,4′-bipiperidin]-1-yl]-3-(propan-2-yl)-1H-pyrazolo[3,4-b]pyridine-6-carboxylic acid] | 530.9 | 104
CC(C)c1nn(-c2ccc(F)cc2)c2nc(C(=O)O)cc(N3CCC(C(=O)N4CCN(C)CC4)CC3)c12 [compound 755, 1-(4-fluorophenyl)-4-[4-(4-methylpiperazine-1-carbonyl)piperidin-1-yl]-3-(propan-2-yl)-1H-pyrazolo[3,4-b]pyridine-6-carboxylic acid] | 270.9 | 1670
CC(C)c1nn(-c2ccc(F)cc2)c2nc(C(=O)O)cc(N3CCC(N4CCOCC4)CC3)c12 [compound 756, 1-(4-fluorophenyl)-4-[4-(morpholin-4-yl)piperidin-1-yl]-3-(propan-2-yl)-1H-pyrazolo[3,4-b]pyridine-6-carboxylic acid] | 446 | 401
CC(C)c1nn(-c2ccc(F)cc2)c2nc(C(=O)O)cc(N3CC(N4CCC(N(C)C5COC5)CC4)C3)c12 [compound 758, 1-(4-fluorophenyl)-4-(3-{4-[methyl(oxetan-3-yl)amino]piperidin-1-yl}azetidin-1-yl)-3-(propan-2-yl)-1H-pyrazolo[3,4-b]pyridine-6-carboxylic acid] | 139.5 | 812
CC(C)c1nn(-c2ccc(F)cc2)c2nc(C(=O)O)cc(N3CC(N4CCC(N5CCOCC5)CC4)C3)c12 [compound 759, 1-(4-fluorophenyl)-4-{3-[4-(morpholin-4-yl)piperidin-1-yl]azetidin-1-yl}-3-(propan-2-yl)-1H-pyrazolo[3,4-b]pyridine-6-carboxylic acid] | 207 | 1670
CC(C)c1nn(-c2ccc(F)cc2)c2nc(C(=O)O)cc(N3CCN(CCCN(C)C)CC3)c12 [compound 760, 4-{4-[3-(dimethylamino)propyl]piperazin-1-yl}-1-(4-fluorophenyl)-3-(propan-2-yl)-1H-pyrazolo[3,4-b]pyridine-6-carboxylic acid] | 131.6 | 5000
CC(C)c1nn(-c2ccc(F)cc2)c2nc(C(=O)O)cc(N3CCC(C)(N4CCN(C)CC4)CC3)c12 [compound 761, 1-(4-fluorophenyl)-4-[4-methyl-4-(4-methylpiperazin-1-yl)piperidin-1-yl]-3-(propan-2-yl)-1H-pyrazolo[3,4-b]pyridine-6-carboxylic acid] | 284 | 1670
CC(C)c1nn(-c2ccc(F)cc2)c2nc(C(=O)O)cc(N3CCC(OCCN4CCCCC4)CC3)c12 [compound 762, 1-(4-fluorophenyl)-4-{4-[2-(piperidin-1-yl)ethoxy]piperidin-1-yl}-3-(propan-2-yl)-1H-pyrazolo[3,4-b]pyridine-6-carboxylic acid] | 442.6 | 462
O=C(O)c1cc(N2CCC(CN3CCOCC3)CC2)c2c(C3CCC3)nn(C3CCCCC3)c2n1 [compound 806, 3-cyclobutyl-1-cyclohexyl-4-{4-[(morpholin-4-yl)methyl]piperidin-1-yl}-1H-pyrazolo[3,4-b]pyridine-6-carboxylic acid] | 435.5 | 225
O=C(O)c1cc(N2CCC(CCN3CCOCC3)CC2)c2c(C3CCC3)nn(C3CCCCC3)c2n1 [compound 807, 3-cyclobutyl-1-cyclohexyl-4-{4-[2-(morpholin-4-yl)ethyl]piperidin-1-yl}-1H-pyrazolo[3,4-b]pyridine-6-carboxylic acid] | 389.35 | 72.5
O=C(O)c1cc(-c2ccc(CN3CCOCC3)cc2)c2c(OC3CCC3)nn(C3CCCCC3)c2n1 [compound 808, 3-(cyclobutyloxy)-1-cyclohexyl-4-{4-[(morpholin-4-yl)methyl]phenyl}-1H-pyrazolo[3,4-b]pyridine-6-carboxylic acid] | 297 | 264
COc1cc(-n2nc(C3CCC3)c3c(N4CCC(N5CCOCC5)CC4)cc(C(=O)O)nc32)ccn1 [compound 816, 3-cyclobutyl-1-(2-methoxypyridin-4-yl)-4-[4-(morpholin-4-yl)piperidin-1-yl]-1H-pyrazolo[3,4-b]pyridine-6-carboxylic acid] | 359.9 | 67.6
O=C(O)c1cc(N2CCC(CN3CCOCC3)CC2)c2c(C3CCC3)nn(-c3ccc(F)cc3)c2n1 [compound 821, 3-cyclobutyl-1-(4-fluorophenyl)-4-{4-[(morpholin-4-yl)methyl]piperidin-1-yl}-1H-pyrazolo[3,4-b]pyridine-6-carboxylic acid] | 545.15 | 134
C[C@H]1CN(c2cc(C(=O)O)nc3c2c(C2CCC2)nn3C2CCCCC2)CCN1Cc1ccccc1 [compound 881, 4-[(3S)-4-benzyl-3-methylpiperazin-1-yl]-3-cyclobutyl-1-cyclohexyl-1H-pyrazolo[3,4-b]pyridine-6-carboxylic acid] | 242.75 | 700
C[C@@H]1CN(c2cc(C(=O)O)nc3c2c(C2CCC2)nn3C2CCCCC2)CCN1Cc1ccccc1 [compound 882, 4-[(3R)-4-benzyl-3-methylpiperazin-1-yl]-3-cyclobutyl-1-cyclohexyl-1H-pyrazolo[3,4-b]pyridine-6-carboxylic acid] | 363.85 | 372
O=C(O)c1cc(N2CCC(CN3CCCC3)CC2)c2c(C3CCC3)nn(-c3ccc(F)cc3)c2n1 [compound 888, 3-cyclobutyl-1-(4-fluorophenyl)-4-{4-[(pyrrolidin-1-yl)methyl]piperidin-1-yl}-1H-pyrazolo[3,4-b]pyridine-6-carboxylic acid] | 430 | 333
